Data as given in PMC11354310, “The Discovery of a Specific CKIP-1 Ligand for the Potential Treatment of Disuse Osteoporosis” (International Journal of Molecular Sciences, 2024).
pKd: −log10 of the molar value.

Key:
[1] = target: T1, CKIP-1 (casein kinase 2 interacting protein-1) (Homo sapiens, UniProt Q53GL0); experiment: SPR (Biacore T200, GST-CKIP-1-C1 captured on CM5 via anti-GST); assay type: binding
T1 construct: gene PLEKHO1; GST-CKIP-1-C1 (C-terminal leucine zipper region, 345–409)
T1 sequence (Q53GL0 345-409): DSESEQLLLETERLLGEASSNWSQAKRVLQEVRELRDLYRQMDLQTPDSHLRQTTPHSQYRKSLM

[2] = target: T1, CKIP-1 (casein kinase 2 interacting protein-1); experiment: SPR (Biacore T200, GST-CKIP-1-C1 captured on CM5 via anti-GST); supported by CETSA in HEK293T cells with Flag-CKIP-1; assay type: binding

Row | Structure (SMILES) | pKd [1] | pKd [2]
1 | CNC(=O)C1(NC(=O)/C=C/c2cc(I)cc(OC)c2O)CC1 [C170] | 5.66 | 
2 | CNC(=O)c1c(F)ccc(NS(=O)(=O)c2ccc(OC)nc2)c1-c1cc(C(F)(F)F)cc(C(F)(F)F)c1 [C77] |  | 7.57
